Data: ChEMBL document CHEMBL5038649, “Chemical Space Expansion of Flavonoids: Induction of Mitotic Inhibition by Replacing Ring B with a 10π-Electron System, Benzo[b]thiophene” (J Nat Prod, 2022)
pIC50: −log10 of the molar value.

How the values were obtained:
Assay type in all cases: functional, cell-based
A549 = test: Antiproliferative activity against human A549 cells assessed as reduction in cell viability after 72 hrs by SRB assay; conditions: A549, 72 h
MDA-MB-231 = test: Antiproliferative activity against human MDA-MB-231 cells assessed as reduction in cell viability after 72 hrs by SRB assay; conditions: MDA-MB-231, 72 h
MCF7 = test: Antiproliferative activity against human MCF7 cells assessed as reduction in cell viability after 72 hrs by SRB assay; conditions: MCF7, 72 h
KB = test: Antiproliferative activity against human KB cells assessed as reduction in cell viability after 72 hrs by SRB assay
[1] = Antiproliferative activity against human KB-VIN cells assessed as reduction in cell viability after 72 hrs by SRB assay; conditions: KBVIN

| pIC50 (A549) | pIC50 (MDA-MB-231) | pIC50 (MCF7) | pIC50 (KB) | Compound | pIC50 [1] |
| --- | --- | --- | --- | --- | --- |
| 5.33 | 5.27 | 5.23 | 5.30 | COc1ccc(O)c(/C=C/C(=O)c2csc3ccccc23)c1 | 5.36 |
| 5.19 | 5.07 | 5.18 | 5.00 | CC(C)Oc1ccc(O)c(C(=O)/C=C/c2csc3ccccc23)c1 | 5.25 |
| 5.32 | 5.22 | 5.11 | 5.31 | Cc1ccc(O)c(C(=O)/C=C/c2csc3ccccc23)c1 | 5.37 |
| 5.26 | 5.21 | 5.12 | 5.24 | COc1cccc(/C=C/C(=O)c2csc3ccccc23)c1 | 5.27 |
| < 5.00 | < 5.00 | < 5.00 | < 5.00 | COc1cc2c(=O)c(-c3csc4ccccc34)coc2c(OC)c1OC | < 5.00 |
| 6.24 | 6.12 | 6.12 | 6.19 | COc1ccc(O)c(C(=O)/C=C/c2csc3ccccc23)c1 | 6.40 |
| < 5.00 | < 5.00 | < 5.00 | < 5.00 | COc1c(OC(C)C)cc2occ(-c3ccccc3)c(=O)c2c1OC(C)C | < 5.00 |
| 6.12 | 6.00 | 5.24 | 6.04 | O=C(/C=C/c1c[nH]c2ccccc12)c1cc(Cl)ccc1O | 6.10 |
| 5.05 | < 5.00 | < 5.00 | < 5.00 | COc1c(OC(C)C)cc2occ(-c3csc4ccccc34)c(=O)c2c1OC(C)C | 5.14 |
| < 5.00 | < 5.00 | < 5.00 | < 5.00 | COc1c(OC(C)C)cc2c(c1O)C(=O)/C(=C/c1csc3ccccc13)O2 | < 5.00 |
| 5.28 | 5.28 | 5.18 | 5.21 | O=C(/C=C/c1csc2ccccc12)c1ccccc1O | 5.27 |
| 5.04 | 5.17 | < 5.00 | 5.20 | O=C(/C=C/c1ccccc1)c1csc2ccccc12 | 5.24 |
| < 5.00 | < 5.00 | < 5.00 | < 5.00 | O=C(/C=C/c1cc2ccccc2s1)c1cc(Br)ccc1O | < 5.00 |
| < 5.00 | < 5.00 | < 5.00 | < 5.00 | COc1ccc(O)c(C(=O)/C=C/c2cc3ccccc3s2)c1 | < 5.00 |
| 5.15 | 5.08 | < 5.00 | 5.13 | O=C(/C=C/c1csc2ccccc12)c1cc(F)ccc1O | 5.27 |
| 5.43 | 5.48 | 5.24 | 5.34 | O=C(/C=C/c1csc2ccccc12)c1cc(Cl)cc(Cl)c1O | 6.08 |
| 6.35 | 6.16 | 6.15 | 6.28 | COc1cc(O)c(C(=O)/C=C/c2csc3ccccc23)cc1OC | 6.57 |
| < 5.00 | < 5.00 | < 5.00 | < 5.00 | O=c1c(-c2csc3ccccc23)coc2ccccc12 | < 5.00 |
| 5.39 | 5.27 | 5.26 | 5.34 | COc1ccc(OC)c(C(=O)/C=C/c2csc3ccccc23)c1 | 5.43 |
| < 5.00 | < 5.00 | < 5.00 | < 5.00 | COc1c(OC(C)C)cc2ccc(-c3cc(=O)c4ccccc4o3)cc2c1OC(C)C | 5.09 |
| 5.22 | 5.05 | 5.13 | 5.12 | CC(C)=CCc1cc(C(=O)/C=C/c2csc3ccccc23)c(O)cc1O | 5.27 |
| < 5.00 | < 5.00 | < 5.00 | < 5.00 | COc1c(OC(C)C)cc2occ(-c3ccccc3)c(=O)c2c1O | < 5.00 |
| < 5.00 | < 5.00 | < 5.00 | < 5.00 | CC(C)Oc1ccc(/C=C/C(=O)c2csc3ccccc23)cc1 | < 5.00 |
| < 5.00 | < 5.00 | < 5.00 | < 5.00 | O=C(/C=C/c1csc2ccccc12)c1cccc(Cl)c1 | < 5.00 |
| 5.30 | 5.22 | 5.01 | 5.21 | O=C(/C=C/c1ccccc1)c1cccc2ccccc12 | 5.27 |
| < 5.00 | < 5.00 | < 5.00 | < 5.00 | O=c1c(-c2ccccc2)coc2ccccc12 [ISOFLAVONE] | < 5.00 |

| pIC50 (A549) | pIC50 (MDA-MB-231) | pIC50 (MCF7) | pIC50 (KB) | Compound | pIC50 [1] |
| --- | --- | --- | --- | --- | --- |
| 5.28 | 5.18 | 5.03 | 5.31 | COc1ccc(/C=C/C(=O)c2csc3ccccc23)cc1OC | 5.33 |
| < 5.00 | < 5.00 | < 5.00 | < 5.00 | COc1cc2occ(-c3csc4ccccc34)c(=O)c2c(OC)c1O | < 5.00 |
| 5.38 | 5.37 | 5.24 | 5.32 | O=C(/C=C/c1csc2ccccc12)c1cc(Br)cc(Br)c1O | 6.00 |
| 5.25 | 5.13 | 5.12 | 5.25 | COc1ccc(C(=O)/C=C/c2csc3ccccc23)c(O)c1 | 5.32 |
| < 5.00 | < 5.00 | < 5.00 | < 5.00 | COc1c(OC(C)C)cc2oc(-n3cncn3)c(-c3csc4ccccc34)c(=O)c2c1OC(C)C | 5.30 |
| < 5.00 | < 5.00 | < 5.00 | < 5.00 | O=C(/C=C/c1ccccc1)c1c(O)ccc2ccccc12 | < 5.00 |
| < 5.00 | < 5.00 | < 5.00 | < 5.00 | COc1c(O)cc2occ(-c3csc4ccccc34)c(=O)c2c1O | < 5.00 |
| 6.18 | 6.08 | 5.98 | 6.12 | O=C(/C=C/c1csc2ccccc12)c1cc(Br)ccc1O | 6.33 |
| < 5.00 | < 5.00 | < 5.00 | < 5.00 | O=C(/C=C/c1cc2ccccc2s1)c1cc(Cl)ccc1O | < 5.00 |
| 5.32 | 5.21 | 5.16 | 5.29 | O=C(/C=C/c1csc2ccccc12)c1cc2c(cc1O)OCO2 | 5.68 |
| 5.27 | 5.17 | 5.12 | 5.24 | CCOc1ccc(O)c(C(=O)/C=C/c2csc3ccccc23)c1 | 5.39 |
| < 5.00 | < 5.00 | < 5.00 | < 5.00 | COc1ccc(/C=C/C(=O)c2csc3ccccc23)cc1 | 5.09 |
| 5.59 | 6.00 | 5.51 | 5.38 | CCOc1cc2occ(-c3csc4ccccc34)c(=O)c2c(OCC)c1OC | 6.17 |
| 5.28 | 5.16 | 5.11 | 5.17 | COc1cc(O)c(C(=O)/C=C/c2csc3ccccc23)c(OC)c1OC | 5.31 |
| < 5.00 | < 5.00 | < 5.00 | < 5.00 | COc1cc2occ(-c3csc4ccccc34)c(=O)c2cc1OC | < 5.00 |
| < 5.00 | < 5.00 | < 5.00 | < 5.00 | COc1c(OC(C)C)cc2c(c1OC(C)C)C(=O)/C(=C/c1csc3ccccc13)O2 | < 5.00 |
| 5.32 | 5.28 | 5.40 | 5.40 | CCOc1c(OC)cc2occ(-c3csc4ccccc34)c(=O)c2c1OC | 6.08 |
| 5.14 | < 5.00 | < 5.00 | < 5.00 | COc1c(OC(C)C)cc2occ(-c3csc4ccccc34)c(=O)c2c1O | < 5.00 |
| < 5.00 | < 5.00 | < 5.00 | < 5.00 | COc1c(OC(C)C)cc2oc(-n3cncn3)c(-c3ccccc3)c(=O)c2c1OC(C)C | < 5.00 |
| 5.14 | < 5.00 | < 5.00 | < 4.40 | O=C(/C=C/c1csc2ccccc12)c1ccc2ccccc2c1O | 5.09 |
| 5.16 | 5.12 | 5.00 | 5.11 | O=C(/C=C/c1cc2ccccc2s1)c1cc(Cl)cc(Cl)c1O | 5.24 |
| < 5.00 | < 5.00 | < 5.00 | < 5.00 | O=C1/C(=C/c2csc3ccccc23)Oc2ccccc21 | < 5.00 |
| < 5.00 | < 5.00 | < 5.00 | < 5.00 | O=C(/C=C/c1ccccc1)c1ccccc1 [CHALCONE] | < 5.00 |
| 5.18 | 5.14 | 5.01 | 5.09 | O=C(/C=C/c1ccc(Cl)cc1)c1csc2ccccc12 | 5.26 |
| < 5.00 | < 5.00 | < 5.00 | < 5.00 | COc1c(O)cc2occ(-c3ccccc3)c(=O)c2c1O | < 5.00 |
| < 5.00 | < 5.00 | < 5.00 | < 5.00 | O=C1/C(=C/c2ccccc2)Oc2ccccc21 [(Z)-AURONE] | < 5.00 |
